Assay results taken from the NIST ThermoML archive (doi:10.1021/je500305u).
± gives the expanded uncertainty stated by the source.

Experiment: mn = molality of the nth substance listed, in mol/kg
Conditions: Liquid, Vibrating tube method

NCC(=O)[O-].[K+] [potassium glycinate] + O
mass density [kg/m3], 101 kPa
Conditions | m1 = 0.99 | m1 = 1.78
293 K | 1065 ± 53 | 1130 ± 58
298 K | 1064 ± 53 | 1128 ± 57
303 K | 1062 ± 53 | 1126 ± 57
308 K | 1060 ± 53 | 1124 ± 57
313 K | 1058 ± 53 | 1121 ± 57
318 K | 1056 ± 53 | 1119 ± 57
323 K | 1053 ± 53 | 1116 ± 57
328 K | 1051 ± 53 | 1114 ± 57
333 K | 1048 ± 52 | 1111 ± 57
338 K | 1045 ± 52 | 1108 ± 56
343 K | 1042 ± 52 | 1105 ± 56
348 K | 1039 ± 52 | 1102 ± 56
353 K | 1036 ± 52 | 1099 ± 56
358 K | 1033 ± 52 | 1096 ± 56
363 K | 1030 ± 52 | 1093 ± 56
373 K | 1023 ± 51 | 1086 ± 55
393 K | 1007 ± 50 | –

NCCS(=O)(=O)[O-].[K+] [potassium taurate] + O
mass density [kg/m3]
Conditions | m1 = 0.89 | m1 = 1.6
283 K | 1084 ± 54 | –
288 K | 1083 ± 54 | –
293 K | 1081 ± 54 | 1145 ± 58
298 K | 1079 ± 54 | 1143 ± 58
303 K | 1078 ± 54 | 1141 ± 58
308 K | 1076 ± 54 | 1139 ± 58
313 K | 1073 ± 54 | 1136 ± 58
318 K | 1071 ± 54 | 1134 ± 58
323 K | 1069 ± 53 | 1131 ± 58
328 K | 1066 ± 53 | 1129 ± 57
333 K | 1064 ± 53 | 1126 ± 57
338 K | 1061 ± 53 | 1123 ± 57
343 K | 1058 ± 53 | 1120 ± 57
348 K | – | 1117 ± 56
353 K | 1051 ± 53 | 1114 ± 57
358 K | – | 1111 ± 56
363 K | – | 1108 ± 56
373 K | 1037 ± 52 | 1101 ± 56
393 K | 1021 ± 51 | 1086 ± 55
